# Source: patent publication US20060293307A1, “Oxazolidinone derivatives as antimicrobials” (priority 2002, published 2006)
# Like-named read-outs stand apart in the source and are kept apart here.
# Experiments:
# H. influenzae P318 = test: MIC against Haemophilus strains; assay type: cell-based; settings: s. No. 10, H. influenzae P318
# H. influenzae ATCC 49247 = test: MIC against Haemophilus strains; assay type: cell-based; settings: s. No. 2, H. influenzae ATCC 49247
# H. influenzae βIac = test: MIC against Haemophilus strains; assay type: cell-based; settings: s. No. 3, H. influenzae βIac
# H. influenzae 23 = test: MIC against Haemophilus strains; assay type: cell-based; settings: s. No. 5, H. influenzae 23
# H. influenzae 474 = test: MIC against Haemophilus strains; assay type: cell-based; settings: s. No. 11, H. influenzae 474
# H. influenzae R = test: MIC against Haemophilus strains; assay type: cell-based; settings: s. No. 4, H. influenzae R
# H. influenzae 35056 = test: MIC against Haemophilus strains; assay type: cell-based; settings: s. No. 1, H. influenzae 35056
# H. influenzae 451 = test: MIC against Haemophilus strains; assay type: cell-based; settings: s. No. 8, H. influenzae 451
# H. influenzae 49766 = test: MIC against Haemophilus strains; assay type: cell-based; settings: s. No. 6, H. influenzae 49766
# H. influenzae 1745 = test: MIC against Haemophilus strains; assay type: cell-based; settings: s. No. 9, H. influenzae 1745
# H. influenzae 1381 = test: MIC against Haemophilus strains; assay type: cell-based; settings: s. No. 7, H. influenzae 1381
# [1] = Haemophilus influenzae, read-out: MIC
MIC (H. influenzae P318) [µg/mL],MIC (H. influenzae ATCC 49247) [µg/mL],MIC (H. influenzae βIac) [µg/mL],MIC (H. influenzae 23) [µg/mL],MIC (H. influenzae 474) [µg/mL],MIC (H. influenzae R) [µg/mL],MIC (H. influenzae 35056) [µg/mL],MIC (H. influenzae 451) [µg/mL],MIC (H. influenzae 49766) [µg/mL],MIC (H. influenzae 1745) [µg/mL],MIC (H. influenzae 1381) [µg/mL],Compound,also measured
0.03,0.015,0.008,0.015,0.015,0.015,0.015,0.015,0.03,0.03,0.015,"C[C@H]1COc2c(N3CCN(C)CC3)c(F)cc3c(=O)c(C(=O)O)cn1c23 [LevoFloxaci, reference compound]",–
–,–,–,–,–,–,–,–,–,–,–,O=C(CF)NC[C@H]1CN(c2ccc(N3CCN(c4ccc([N+](=O)[O-])s4)CC3)c(F)c2)C(=O)O1,melting point: 145 to 150 °C
0.015,0.125,<0.002,0.004,0.004,0.004,0.06,0.008,0.008,0.004,0.008,"CO/N=C(\C(=O)N[C@@H]1C(=O)N2C(C(=O)O)=C(CSc3nc(=O)c(O)nn3C)CS[C@H]12)c1csc(N)n1 [Ceftriaxone, reference compound]",–
–,–,–,–,–,–,–,–,–,–,–,"CC[C@H]1OC(=O)[C@H](C)C(=O)[C@H](C)[C@@H](O[C@@H]2O[C@H](C)C[C@H](N(C)C)[C@H]2O)[C@](C)(OC)C[C@@H](C)C(=O)[C@H](C)[C@H]2N(CCCCn3cnc(-c4cccnc4)c3)C(=O)O[C@]12C [Telithromycin, reference compound]","MIC (H. influenzae P318; [1]): 1 µg/mL; MIC (H. influenzae ATCC 49247; Haemophilus influenzae, ATCC49247, read-out: MIC): 2 µg/mL; MIC (H. influenzae βIac; [1]): 2 µg/mL; MIC (H. influenzae 23; [1]): 2 µg/mL; MIC (H. influenzae 474; [1]): 2 µg/mL; MIC (H. influenzae R; [1]): 2 µg/mL; MIC (H. influenzae 35056; [1]): 2 µg/mL; MIC (H. influenzae 451; [1]): 2 µg/mL; MIC (H. influenzae 49766; [1]): 2 µg/mL; MIC (H. influenzae 1745; [1]): 1 µg/mL; MIC (H. influenzae 1381; [1]): 2 µg/mL"
